Measured values taken from patent US4038317A, “O-aminoalkyl oximes” (Seperic, priority 1975, dated 1977).
Counter-ions that a name gives are not always drawn.

Test system: isolated auricle of guinea-pig
Assay: isolated auricle of guinea-pig: antagonism of isoprenaline (PA2)
Assay type: cell-based
Conditions: Cavia porcellus, agonist isoprenaline, PA2 = cologarithm of antagonist concentration requiring twice as much agonist, read-out: PA2 Chronotropic effect (converted)
Excerpt: (§1) The following Table gives the PA2 determined with respect to this agonist (PA2 is the cologarithm of the antagonist concentration in the presence of which it is required to use twice as much agonist than in its absence to obtain the same effect; vide, on the subject; Calcul des PA2, Fiche Technique n° 16, J. Pharmacol. Paris, 1971, 2, 3, 373-380).

Structure (SMILES) | Kb [µM]
CC(=NOCC(O)CNC(C)(C)C)c1ccc(Cl)cc1 (centres unmarked) [Example 2, 4-chloro-acetophenone-0-(3-tert.butylamino-2-hydroxy-propyl)oxime hydrochloride] | 0.0263
CC(C)NCC(O)CON=Cc1ccc2ccccc2c1 (centres unmarked) [Example 3, 2-naphthalene carbaldehyde-0-(3-isopropylamino-2-hydroxy-propyl)-oxime hydrochloride] | 0.295
CC(C)(C)NCC(O)CON=C(c1ccccc1)c1ccccc1 (centres unmarked) [Example 4, benzophenone-0-(3-tert.butylamino-2-hydroxy-propyl)-oxime hydrochloride] | 0.162
CC(C)NCC(O)CON=C1c2ccccc2-c2ccccc21 (centres unmarked) [Example 9] | 0.0407
CC(C)NCC(O)CON=c1c2ccccc2oc2ccccc12 (centres unmarked) [Example 10] | 0.0794
CC(C)NCC(O)CON=C1CCc2ccccc21 (centres unmarked) [Example 12] | 0.363
CC(=NOCC(O)CNC(C)C)c1ccccc1 (centres unmarked) [Example 13] | 0.229
CC(C)NCC(O)CON=C(c1ccccc1)c1ccccc1 (centres unmarked) [Example 14] | 0.162
CC(C)NCC(O)CON=C1CCCc2ccccc21 (centres unmarked) [Example 15] | 0.676
CC(C)NCC(O)CON=Cc1ccccc1 (centres unmarked) [Example 16] | 3.02
CC(=NOCC(O)CNC(C)(C)C)c1ccc(C)cc1 (centres unmarked) [Example 17] | 0.0148
CC(C)(C)NCC(O)CON=C1CCCc2ccccc21 (centres unmarked) [Example 18] | 0.0708
CC(C)(C)NCC(O)CON=Cc1ccccc1 (centres unmarked) [Example 19] | 0.55
CC(=NOCC(O)CNC(C)(C)C)c1ccccc1Cl (centres unmarked) [Example 20] | 0.00457
CC(=NOCC(O)CNC(C)(C)C)c1ccccc1 (centres unmarked) [Example 21] | 0.2
COc1ccc(C(C)=NOCC(O)CNC(C)(C)C)cc1 (centres unmarked) [Example 22] | 0.0141
CC(=NOCC(O)CNC(C)(C)C)c1ccc([N+](=O)[O-])cc1 (centres unmarked) [Example 23] | 0.0347
CC(=NOCC(O)CNC(C)(C)C)c1ccccc1C (centres unmarked) [Example 24] | 0.219
CC(=NOCC(O)CNC(C)(C)C)c1ccc(Br)cc1 (centres unmarked) [Example 25] | 0.0263
CC(=NOCC(O)CNC(C)(C)C)c1cccc(C)c1 (centres unmarked) [Example 26] | 0.00776
CC(=NOCC(O)CNC(C)(C)C)c1ccc(N)cc1 (centres unmarked) [Example 27] | 0.0229
CC(C)(C)NCC(O)CON=Cc1ccc2ccccc2c1 (centres unmarked) [Example 28] | 0.0355
CC(=NOCC(O)CNC(C)(C)C)c1ccc(C#N)cc1 (centres unmarked) [Example 31] | 0.12

Same assay, conditions: Cavia porcellus, agonist isoprenaline, PA2 = cologarithm of antagonist concentration requiring twice as much agonist, read-out: PA2 Inotropic effect (converted)

Structure (SMILES) | Kb [µM]
CC(=NOCC(O)CNC(C)(C)C)c1ccc(Cl)cc1 (centres unmarked) [Example 2, 4-chloro-acetophenone-0-(3-tert.butylamino-2-hydroxy-propyl)oxime hydrochloride] | 0.0372
CC(C)NCC(O)CON=Cc1ccc2ccccc2c1 (centres unmarked) [Example 3, 2-naphthalene carbaldehyde-0-(3-isopropylamino-2-hydroxy-propyl)-oxime hydrochloride] | 0.115
CC(C)(C)NCC(O)CON=C(c1ccccc1)c1ccccc1 (centres unmarked) [Example 4, benzophenone-0-(3-tert.butylamino-2-hydroxy-propyl)-oxime hydrochloride] | 0.427
CC(C)NCC(O)CON=C1c2ccccc2-c2ccccc21 (centres unmarked) [Example 9] | 0.0794
CC(C)NCC(O)CON=c1c2ccccc2oc2ccccc12 (centres unmarked) [Example 10] | 0.219
CC(C)NCC(O)CON=C1CCc2ccccc21 (centres unmarked) [Example 12] | 0.513
CC(=NOCC(O)CNC(C)C)c1ccccc1 (centres unmarked) [Example 13] | 0.186
CC(C)NCC(O)CON=C(c1ccccc1)c1ccccc1 (centres unmarked) [Example 14] | 0.191
CC(C)NCC(O)CON=C1CCCc2ccccc21 (centres unmarked) [Example 15] | 0.759
CC(C)NCC(O)CON=Cc1ccccc1 (centres unmarked) [Example 16] | 2.4
CC(=NOCC(O)CNC(C)(C)C)c1ccc(C)cc1 (centres unmarked) [Example 17] | 0.0138
CC(C)(C)NCC(O)CON=C1CCCc2ccccc21 (centres unmarked) [Example 18] | 0.0288
CC(C)(C)NCC(O)CON=Cc1ccccc1 (centres unmarked) [Example 19] | 0.269
CC(=NOCC(O)CNC(C)(C)C)c1ccccc1Cl (centres unmarked) [Example 20] | 0.00427
CC(=NOCC(O)CNC(C)(C)C)c1ccccc1 (centres unmarked) [Example 21] | 0.117
COc1ccc(C(C)=NOCC(O)CNC(C)(C)C)cc1 (centres unmarked) [Example 22] | 0.0115
CC(=NOCC(O)CNC(C)(C)C)c1ccc([N+](=O)[O-])cc1 (centres unmarked) [Example 23] | 0.0251
CC(=NOCC(O)CNC(C)(C)C)c1ccccc1C (centres unmarked) [Example 24] | 0.204
CC(=NOCC(O)CNC(C)(C)C)c1ccc(Br)cc1 (centres unmarked) [Example 25] | 0.0126
CC(=NOCC(O)CNC(C)(C)C)c1cccc(C)c1 (centres unmarked) [Example 26] | 0.00794
CC(=NOCC(O)CNC(C)(C)C)c1ccc(N)cc1 (centres unmarked) [Example 27] | 0.0145
CC(C)(C)NCC(O)CON=Cc1ccc2ccccc2c1 (centres unmarked) [Example 28] | 0.0324
CC(=NOCC(O)CNC(C)(C)C)c1ccc(C#N)cc1 (centres unmarked) [Example 31] | 0.123

Test system: isolated trachea of guinea-pig
Assay: isolated trachea of guinea-pig: antagonism of isoprenaline relaxation (PA2)
Assay type: cell-based
Conditions: Cavia porcellus, agonist isoprenaline, PA2 = cologarithm of antagonist concentration requiring twice as much agonist
Excerpt: on the isolated trachea of guinea-pigs: they inhibit the relaxation due to the action of this same isoprenaline.
as §1

Structure (SMILES) | Kb [µM]
CC(=NOCC(O)CNC(C)(C)C)c1ccc(Cl)cc1 (centres unmarked) [Example 2, 4-chloro-acetophenone-0-(3-tert.butylamino-2-hydroxy-propyl)oxime hydrochloride] | 0.245
CC(C)NCC(O)CON=Cc1ccc2ccccc2c1 (centres unmarked) [Example 3, 2-naphthalene carbaldehyde-0-(3-isopropylamino-2-hydroxy-propyl)-oxime hydrochloride] | 0.000427
CC(C)(C)NCC(O)CON=C(c1ccccc1)c1ccccc1 (centres unmarked) [Example 4, benzophenone-0-(3-tert.butylamino-2-hydroxy-propyl)-oxime hydrochloride] | 0.011
CC(C)NCC(O)CON=C1c2ccccc2-c2ccccc21 (centres unmarked) [Example 9] | 0.166
CC(C)NCC(O)CON=c1c2ccccc2oc2ccccc12 (centres unmarked) [Example 10] | 0.155
CC(=NOCC(O)CNC(C)C)c1ccccc1 (centres unmarked) [Example 13] | 0.0288
CC(C)NCC(O)CON=C(c1ccccc1)c1ccccc1 (centres unmarked) [Example 14] | 0.0324
CC(C)NCC(O)CON=C1CCCc2ccccc21 (centres unmarked) [Example 15] | 0.0126
CC(C)NCC(O)CON=Cc1ccccc1 (centres unmarked) [Example 16] | 0.129
CC(=NOCC(O)CNC(C)(C)C)c1ccc(C)cc1 (centres unmarked) [Example 17] | 0.0129
CC(C)(C)NCC(O)CON=C1CCCc2ccccc21 (centres unmarked) [Example 18] | 0.000631
CC(C)(C)NCC(O)CON=Cc1ccccc1 (centres unmarked) [Example 19] | 0.589
CC(=NOCC(O)CNC(C)(C)C)c1ccccc1Cl (centres unmarked) [Example 20] | 0.0138
CC(=NOCC(O)CNC(C)(C)C)c1ccccc1 (centres unmarked) [Example 21] | 0.024
COc1ccc(C(C)=NOCC(O)CNC(C)(C)C)cc1 (centres unmarked) [Example 22] | 0.00182
CC(=NOCC(O)CNC(C)(C)C)c1ccc([N+](=O)[O-])cc1 (centres unmarked) [Example 23] | 0.0288
CC(=NOCC(O)CNC(C)(C)C)c1ccccc1C (centres unmarked) [Example 24] | 0.0126
CC(=NOCC(O)CNC(C)(C)C)c1ccc(Br)cc1 (centres unmarked) [Example 25] | 0.00309
CC(=NOCC(O)CNC(C)(C)C)c1cccc(C)c1 (centres unmarked) [Example 26] | 0.00501
CC(=NOCC(O)CNC(C)(C)C)c1ccc(N)cc1 (centres unmarked) [Example 27] | 0.0794
CC(C)(C)NCC(O)CON=Cc1ccc2ccccc2c1 (centres unmarked) [Example 28] | 0.0427
CC(=NOCC(O)CNC(C)(C)C)c1ccc(C#N)cc1 (centres unmarked) [Example 31] | 0.102

Test system: action of isoprenaline
Assay: inhibition of the action of isoprenaline on cardiac parameters in anesthetized dog
Assay type: in vivo
Conditions: Canis lupus familiaris, isoprenaline 0.02 micromole/kg, blood pressure, read-out: 50% inhibiting dosage of the action of isoprenaline: Blood pressure
Excerpt: This beta-blocking activity is again apparent in vivo. […] The following Table sets forth the dosages which inhibit 50% of the effect of 0.02 micromole/kg of isoprenaline on blood pressure, on cardiac rhythm and on the contractile strength of the heart.

Structure (SMILES) | ED50 [µmol/kg]
CC(C)(C)NCC(O)CON=C1c2ccccc2-c2ccccc21 (centres unmarked) [Example 1, 9-(3-tert.butylamino-2-hydroxypropoxy)imino-fluorene hydrochloride] | 0.2
CC(=NOCC(O)CNC(C)(C)C)c1ccc(Cl)cc1 (centres unmarked) [Example 2, 4-chloro-acetophenone-0-(3-tert.butylamino-2-hydroxy-propyl)oxime hydrochloride] | 1
CC(C)NCC(O)CON=C1c2ccccc2-c2ccccc21 (centres unmarked) [Example 9] | 1.3
CC(C)(C)NCC(O)CON=C1CCCc2ccccc21 (centres unmarked) [Example 18] | 0.05
CC(=NOCC(O)CNC(C)(C)C)c1ccccc1Cl (centres unmarked) [Example 20] | 0.07
CC(=NOCC(O)CNC(C)(C)C)c1ccc([N+](=O)[O-])cc1 (centres unmarked) [Example 23] | 0.1

Same assay, conditions: Canis lupus familiaris, isoprenaline 0.02 micromole/kg, cardiac rhythm, read-out: 50% inhibiting dosage of the action of isoprenaline: Rhythm

Structure (SMILES) | ED50 [µmol/kg]
CC(C)(C)NCC(O)CON=C1c2ccccc2-c2ccccc21 (centres unmarked) [Example 1, 9-(3-tert.butylamino-2-hydroxypropoxy)imino-fluorene hydrochloride] | 3
CC(=NOCC(O)CNC(C)(C)C)c1ccc(Cl)cc1 (centres unmarked) [Example 2, 4-chloro-acetophenone-0-(3-tert.butylamino-2-hydroxy-propyl)oxime hydrochloride] | > 10
CC(C)NCC(O)CON=C1c2ccccc2-c2ccccc21 (centres unmarked) [Example 9] | > 17
CC(C)(C)NCC(O)CON=C1CCCc2ccccc21 (centres unmarked) [Example 18] | > 1
CC(=NOCC(O)CNC(C)(C)C)c1ccccc1Cl (centres unmarked) [Example 20] | 1
CC(=NOCC(O)CNC(C)(C)C)c1ccc([N+](=O)[O-])cc1 (centres unmarked) [Example 23] | 3

Same assay, conditions: Canis lupus familiaris, isoprenaline 0.02 micromole/kg, contractile strength of the heart, read-out: 50% inhibiting dosage of the action of isoprenaline: Contractile strength

Structure (SMILES) | ED50 [µmol/kg]
CC(C)(C)NCC(O)CON=C1c2ccccc2-c2ccccc21 (centres unmarked) [Example 1, 9-(3-tert.butylamino-2-hydroxypropoxy)imino-fluorene hydrochloride] | 3
CC(=NOCC(O)CNC(C)(C)C)c1ccc(Cl)cc1 (centres unmarked) [Example 2, 4-chloro-acetophenone-0-(3-tert.butylamino-2-hydroxy-propyl)oxime hydrochloride] | 10
CC(C)NCC(O)CON=C1c2ccccc2-c2ccccc21 (centres unmarked) [Example 9] | > 17
CC(C)(C)NCC(O)CON=C1CCCc2ccccc21 (centres unmarked) [Example 18] | > 1
CC(=NOCC(O)CNC(C)(C)C)c1ccccc1Cl (centres unmarked) [Example 20] | 0.7
CC(=NOCC(O)CNC(C)(C)C)c1ccc([N+](=O)[O-])cc1 (centres unmarked) [Example 23] | 3
